Data on three molecules can be found in patent US20170095496A1, “GALACTOSIDE INHIBITORS FOR NEW USES” (GALECTO BIOTECH AB, priority 2014, published 2017).

Data set [1] deals with BV2 microglial cells. Nature of the data set: Phagocytic assay (uptake of IgG-FITC beads) in α-synuclein-activated BV2 microglia. The settings on record: for phagocytic ability on adding galectin-3 protein: BV2 cells, 12 h. Type of data set: cell-based, Murine. On the procedure:
We measure microglial phagocytosis using a phagocytosis assay kit (Cayman Chem, USA) according to the protocol provided by the manufacturer's. We plated 5×10^4 cells/well in 96 well plates for 12 h before treating the cells with α-synuclein 20 μM for additional 12 h. Thereafter IgG-FITC beads we added with or without galectin-3 inhibitor for 12 h. The phagocytic ability was analyzed by a fluorescent plate reader (FluoStar Optima, BMG, LabTech, Sweden).
To test the implication of galectin-3 on phagocytic ability of microglial cells in our model of α-synuclein induced activation, we pre-treated the cells with 100 μM of galectin-3 inhibitor for 30 min and subsequently treated them with α-synuclein aggregates or combining both for 12 h. Microglial cells activated with α-synuclein show high phagocytic activity (FIG. 4).

Data set [2] concerns BV2 microglial cells. Nature of the data set: iNOS expression by western blot in BV2 microglia activated with α-synuclein. In kind it is cell-based, Murine. Conditions: for down regulation of iNOS expression: α-synuclein aggregates 20 μM; for inhibition of iNOS expression induced by α-synuclein monomers: inhibitor 30 min pre-treatment, monomers 20 μM. The procedure:
Murine (microglial cell line (BV2 cells)) was culture in Dulbecco's modified Eagle's medium (DMEM) containing 10% Fetal Bovine Serum (Invitrogen) with 100 U/ml Penicillin and 100 U/ml Streptomycin (Invitrogen) in 5% CO2 atmosphere at 37° C. One day before BV2 were seeded at a concentration of 2×10^5 cells/well in 24 wells plate (Nunc). The BV2 cells were treated with α-synuclein monomers and aggregates at different concentrations: 5 μM, 10 μM and 20 μM. The cells were also treated with LPS (Sigma-Aldrich) at 1 μg/ml. All the treatments were conducted for 12 h.
We used a small inhibitory molecule for galectin-3 activity, bis-{3-deoxy-3-[4-(3-fluorophenyl)-1H-1,2,3-triazol-1-yl]-β-D-galactopyranosyl} sulfane (Mackinnon et al., 2012, Volarevic et al., 2012, Saksida et al., 2013). This inhibitor was used as pre-treatment for 30 min throughout the study, except in the phagocytic assay when we used 12 h incubation time. To test the inhibitor ability alter α-synuclein-induced inflammation, we tested different concentration, from 5 μM to 100 μM. After 30 min pre-treatment with the inhibitor, we add the treatments of α-synuclein monomers or aggregates of at different concentration for 12 h. The inhibitor is dilute in DMSO (40%) and distilled water (60%) in a stock concentration of 4 mM.
Transfection of BV2 cells was carried out using Lipofectamine 2000 (Invitrogen) following the manufacturer's recommendation. Non-targeting control and galectin-3 siRNAs were obtained from Dharmacon. (SMART pool) siRNA sequence used: siLGal3S3(1) J-041097-09 GAGAGAUACCCAUCGCUUU (SEQ ID NO:4), siLGal3S3(2) J-041097-10 ACUUCAAGGUUGCGGUCAA (SEQ ID NO:5), siLGal3S3(3) J-041097-11 ACAGUGAAACCCAACGCAA (SEQ ID NO:6), siLGal3S3(4) J-041097-12 GGAUGAAGAACCUCCGGGA (SEQ ID NO:7).
Western blot was performed for iNOS and galectin-3 protein levels for BV2 microglial cell or for primary microglial cells. Briefly, 5 or 10 μg of proteins of sample were loaded on 4-20% Mini-Protean TGX Precast Gels (Bio-Rad) and the transferred to Nitrocellulose membrane (Bio-Rad) using Trans-Blot Turbo System (Bio-Rad). We blocked the membrane during 1 h at room temperature with 10% Casein (Sigma-Aldrich) diluted in PBS (tablets, Sigma-Aldrich). After blocking we incubate with the primary appropriate antibody at 4° C. overnight. We clean the membranes with PBS-Tween 20 (0.1%) and then incubate during 2 h at room temperature with the appropriate peroxidase secondary antibody (Vector Labs). Each blot was developed using Clarity Western ECL Substrate (Biorad). The protein level, measured by Bradford assay (Thermo Scientific), was normalized correcting the protein level with β-Actin. The results were normalized to the highest concentration used (20 μM) in each experiment in order to normalize inflammatory response. We also used Western Blot to estimate the composition of the α-synuclein aggregates that we generated from monomeric α-synuclein.
Next, we wanted to assess the role of galectin-3 inhibition in α-synuclein-induced activation of microglial cells. To this end, microglial cells were pretreated with the galectin-3 inhibitor at different concentrations (5, 25, 50 and 100 μM), for 30 min, then the cells were washed to remove the inhibitor to further treat them with α-synuclein monomers or aggregates (20 μM) for 12 h whereafter the iNOS protein expression levels were analyzed. […] Indeed, more than 50% down regulation of iNOS expression was found at 50 and 100 μM inhibitor treatment.
To further test the role of galectin-3 in microglial activation, we decided to knockdown galectin-3 expression in BV2 cells using small interferring RNA (siRNA). Galectin-3 and siRNA negative control knocked-down cells were treated with α-synuclein aggregates (20 μM) for 12 h and their iNOS expression levels were compared using western blot analysis. […] Western blot analysis showing iNOS and β-actin protein levels.

The test system of the next data set is BV2 cells. Nature of the data set: XTT viability assay. Type of data set: cell-based, Murine. Conditions: alone or in combination with α-synuclein aggregates; data not shown. On the procedure: To test if the α-synuclein, the galectin-3 inhibitor, or both, are toxic for BV2 cells in different conditions, we used an in vitro viability assay kit based on a XTT (Sigma-Aldrich) reduction spectrophotometric method to estimate the mitochondrial activity in living cells. The assay was performed following manufacturer's protocol provided in the kit. The absorbance was measured by spectrophotometrically using a plate reader.

Another data set relates to galectins. Conditions: compared with N-acetyllactosamine; cited from earlier work.

“Also recorded” adds a separate entry of the source.

`OC[C@H]1O[C@@H](S[C@@H]2O[C@H](CO)[C@H](O)[C@H](n3cc(-c4cccc(F)c4)nn3)[C@H]2O)[C@H](O)[C@@H](n2cc(-c3cccc(F)c3)nn2)[C@H]1O` [TD139, Bis-{3-deoxy-3-[4-(3-fluorophenyl)-1H-1,2,3-triazol-1-yl]-β-D-galactopyranosyl} sulfane]: the phagocytic ability entry in the data set on BV2 microglial cells [1] (100 μM inhibitor as 30 min pre-treatment only) is listed as “couldn't find any difference”; in the data set on BV2 microglial cells [1] (100 μM inhibitor combined with α-synuclein aggregates 20 μM for 12 h) it was “reduced phagocytic ability; also recorded: robustly inhibited the phagocytosis”; in the data set with BV2 microglial cells [1] (100 μM inhibitor combined with α-synuclein aggregates 20 μM for 12 h, listed as galectin-3 inhibitor) it was “robustly reduced to control levels”. Further, the “down regulation of iNOS expression” value is given as “more than 50%” in the data set with BV2 microglial cells [2] (50 μM inhibitor, 30 min pre-treatment, 12 h) and “more than 50%” in the data set on BV2 microglial cells [2] (100 μM inhibitor, 30 min pre-treatment, 12 h). For the same molecule, the “inhibition of iNOS expression induced by α-synuclein aggregates” value in the data set with BV2 microglial cells [2] (inhibitor 5, 25, 50 and 100 μM, 30 min pre-treatment, aggregates 20 μM, 12 h) is recorded as “significantly inhibited”. In addition, the “inhibition of iNOS expression induced by α-synuclein monomers” value is “not significantly inhibited” with BV2 microglial cells [2] (12 h) and “not to monomers” in the data set on BV2 microglial cells [2] (12 h, listed as galectin-3 inhibitor). Moreover, the “inflammatory response induced by α-synuclein” value with BV2 microglial cells [2] (summary statement, BV2 microglia) is given as “significant reduction”. Besides, in the data set with BV2 cells, the cell viability entry is “does not negatively affect cell viability”.
On to `OC[C@H]1O[C@@H](S[C@@H]2O[C@H](CO)[C@H](O)[C@H](O)[C@H]2O)[C@H](O)[C@@H](O)[C@H]1O` [thiodigalactoside], for which the “efficiency as galectin inhibitor” value with galectins is listed as “approximately as efficient as N-acetyllactosamine”.
With “galectin-3 protein: galectin-3 protein added to microglial cells in the phagocytic assay”, the results for the “phagocytic ability on adding galectin-3 protein” value in the data set on BV2 microglial cells [1] and with BV2 microglial cells [1] (listed as galectin-3) were “increases the phagocytic ability to a similar extent as α-synuclein aggregates” and “recover the phagocytic ability”, respectively.
